Each structure is given as a SMILES string.

The text below walks through data of patent publication US12285394B2, “Ketogenic compounds, compositions, methods and use thereof” (9500-0535 QUEBEC INC., priority 2018, dated 2025).

This data set in a line: pH of the compounds. The format is physicochemical.

In the case of `CC(O)CC(=O)O` (stereo not drawn) [BHB, β-hydroxybutyric acid], the pKa – broadly, the pH at which an ionisable group is half protonated – was ~4.4.
